According to patent US11358962B2, “2-hetaryl imidazol[1,2-a]pyridine derivatives” (Hoffmann-La Roche Inc., priority 2013, dated 2022):
Structures can show the parent of a compound that is named as a salt.

The compounds below were run on native tau aggregates (assay: TAU radioligand in vitro displacement assay ([3H]T808, autoradiography on human AD brain sections)). Conditions: compound 10 nM, radioligand [3H]T808 10 nM.
Type: binding
Source text: TAU Radioligand-In-Vitro Displacement Assay
This in vitro binding assay assesses the affinity of compounds for native tau aggregates.
AD human brains are purchased from Banner Sun Health Research Institute (Sun City, Ariz., USA). Pathological diagnosis of AD is made according to standard NIA-Reagan Institute criteria based on neuropathological data. The radioligand [^3H]T808 was synthesized in-house ([^3H]-2-[4-(2-Fluoro-ethyl)-piperidin-1-yl]-benzo[4,5]imidazo[1,2-a]pyrimidine, radiochemical purity 99.0%). As a reference cold T808 is used (2-[4-(2-Fluoro-ethyl)-piperidin-1-yl]-benzo[4,5]imidazo[1,2-a]pyrimidine). For the autoradiography FujiFilm Imaging Plates (BAS-IP TR 2025) are exposed to the sections and read with a FujiFilm IP reader (BAS-5000).
Ten μm thick human AD brain sections are generated with a cryostat (Leica CM3050) at −17° C. chamber temperature and −15° C. object temperature. Sections are transferred to Histobond+ microscope slides (Marienfeld Laboratory Glasware). After drying for 3 hours at room temperature the sections are stored at −20° C. The sections are incubated with the radioligand (10 nM) and the respective cold compound (at various concentrations) in 50 mM Tris buffer, pH 7.4 at room temperature for 30 min. After washing 3× 10 min at 4° C. in 50 mM Tris buffer, pH 7.4 and 3 quick dips in H2O dist. at 4° C. the sections are dried at 4° C. for 3 h. The sections are placed in a FujiFilm Cassette (BAS 2025), exposed with an Imaging Plate for five days and afterwards scanned with a resolution of […].
The signal intensity (Dens−PSL/mm2) in the region of interest (ROI) of the autoradiogram is quantified with the software MCID analysis (version 7.0, Imaging Research Inc.). The specific binding (SB) of [^3H]T808 binding in absence or in presence of a compound is calculated by subtracting the non-specific binding signal in the white matter, thus yielding SB[3H]T808 only and SBcompound. The % displacement by the various compounds is calculated as following: % displacement=100−(SBcompound/SB[3H]T808 only)*100. Validation Data
In each experiment cold T808 is used as a positive internal control. Co-incubation of equimolar amounts of hot and cold T808 is expected to reduce specific binding by approximately 50%.

Question: Which “% displacement of [3H]T808 (10 nM) at 10 nM” value (“% displacement … at 10 nM” for short) does the source give for `FCOc1ccc(-c2cn3ccc(NC4CC4)cc3n2)cc1` [Example 80, Cyclopropyl-[2-(4-fluoromethoxy-phenyl)-imidazo[1,2-a]pyridin-7-yl]-amine] here?
Answer: Its value is 34%.

Question: Which “% displacement … at 10 nM” value does the source give for `CNc1ccn2cc(-c3cccnc3)nc2c1` [Example 126, Methyl-(2-pyridin-3-yl-imidazo[1,2-a]pyridin-7-yl)-amine] here?
Answer: Its value is 12%.

Question: Which “% displacement … at 10 nM” value does the source give for `CNc1ccn2cc(-c3ccc(OC)c(OC)c3)nc2c1` [Example 66, [2-(3,4-Dimethoxy-phenyl)-imidazo[1,2-a]pyridin-7-yl]-methyl-amine] here?
Answer: The value was 40%.

Question: How did the “% displacement … at 10 nM” value turn out when `CO[C@H]1CCN(c2ccn3cc(-c4cccc(C)c4)nc3c2)C1` [Example 48, 7-((S)-3-Methoxy-pyrrolidin-1-yl)-2-m-tolyl-imidazo[1,2-a]pyridine] was run?
Answer: The value was 8%.

Question: For `COc1ccc(-c2cn3ccc(NCCF)cc3n2)cc1` [Example 75, (2-Fluoro-ethyl)-[2-(4-methoxy-phenyl)-imidazo[1,2-a]pyridin-7-yl]-amine], which “% displacement … at 10 nM” value is on record?
Answer: The value was 42%.

Question: How did the “% displacement … at 10 nM” value turn out when `CNc1ccn2cc(-c3ccc(N4CCC(F)CC4)cc3)nc2c1` [Example 141, 2-(4-(4-fluoropiperidin-1-yl)phenyl)-N-methylimidazo[1,2-a]pyridin-7-amine] was run?
Answer: The value was 35%.

Question: How did the “% displacement … at 10 nM” value turn out when `CNc1ccn2cc(-c3cccc(C)c3)nc2c1` [Example 25, N-Methyl-2-m-tolylimidazo[1,2-a]pyridin-7-amine] was run?
Answer: Its value is 54%.

Question: How did the “% displacement … at 10 nM” value turn out when `COCc1ccc(-c2cn3ccc(N(C)C)cc3n2)cc1` [Example 99, 2-[4-(Methoxymethyl)phenyl]-N,N-dimethyl-imidazo[1,2-a]pyridin-7-amine acetic acid adduct] was run?
Answer: Its value is 37%.

Question: Which “% displacement … at 10 nM” value does the source give for `CNc1ccn2cc(-c3cccc(CO)c3)nc2c1` [Example 123, [3-[7-(Methylamino)imidazo[1,2-a]pyridin-2-yl]phenyl]methanol] here?
Answer: Its value is 23%.

Question: `CNc1ccn2cc(-c3cccc(SC)c3)nc2c1` [Example 136, N-methyl-2-(3-(methylthio)phenyl)imidazo[1,2-a]pyridin-7-amine] was tested. Which “% displacement … at 10 nM” value did it give?
Answer: The value was 20%.

Question: For `Cc1cccc(-c2cn3ccc(NCCF)cc3n2)c1` [Example 47, (2-Fluoro-ethyl)-(2-m-tolyl-imidazo[1,2-a]pyridin-7-yl)-amine], which “% displacement … at 10 nM” value is on record?
Answer: Its value is 36%.

Question: For `CNc1ccn2cc(-c3cccc(OCCF)c3)nc2c1` [Example 137, 2-(3-(2-fluoroethoxy)phenyl)-N-methylimidazo[1,2-a]pyridin-7-amine], which “% displacement … at 10 nM” value is on record?
Answer: The value was 41%.

Question: Which “% displacement … at 10 nM” value does the source give for `COc1cccc(-c2cn3ccc(NCCF)cc3n2)c1` [Example 76, (2-Fluoro-ethyl)-[2-(3-methoxy-phenyl)-imidazo[1,2-a]pyridin-7-yl]-amine] here?
Answer: Its value is 31%.

Question: How did the “% displacement … at 10 nM” value turn out when `CN(CCF)c1ccn2cc(-c3ccc4c(c3)OCCO4)nc2c1` [Example 23, [2-(2,3-Dihydro-benzo[1,4]dioxin-6-yl)-imidazo[1,2-a]pyridin-7-yl]-(2-fluoro-ethyl)-methyl-amine] was run?
Answer: Its value is 27%.

Question: Which “% displacement … at 10 nM” value does the source give for `FCCNc1ccn2cc(-c3ccc(OCF)cc3)nc2c1` [Example 50, (2-Fluoro-ethyl)-[2-(4-fluoromethoxy-phenyl)-imidazo[1,2-a]pyridin-7-yl]-amine] here?
Answer: The value was 20%.

Question: With `CNc1ccn2cc(-c3ccc4c(c3)OCCCO4)nc2c1` [Example 96, N-[2-(3,4-Dihydro-2H-benzo[b][1,4]dioxepin-7-yl)-imidazo[1,2-a]pyridin-7-yl]-methyl-amine] as the compound, how does the “% displacement … at 10 nM” value read?
Answer: Its value is 35%.

Question: For `CNc1ccn2cc(-c3ccc(C)c(C)c3)nc2c1` [Example 53, [2-(3,4-Dimethyl-phenyl)-imidazo[1,2-a]pyridin-7-yl]-methyl-amine], which “% displacement … at 10 nM” value is on record?
Answer: Its value is 25%.

Question: Which “% displacement … at 10 nM” value does the source give for `CNc1ccn2cc(-c3ccc(OCF)cc3)nc2c1` [Example 45, [2-(4-Fluoromethoxy-phenyl)-imidazo[1,2-a]pyridin-7-yl]-methyl-amine] here?
Answer: The value was 45%.

Question: With `CNc1ccn2cc(-c3ccc4c(c3)OCO4)nc2c1` [Example 37, (2-Benzo[1,3]dioxol-5-yl-imidazo[1,2-a]pyridin-7-yl)-methyl-amine] as the compound, how does the “% displacement … at 10 nM” value read?
Answer: The value was 60%.

Question: With `CNc1ccn2cc(-c3cc4ccccc4o3)nc2c1` [Example 116, N-[2-(Benzofuran-2-yl)-imidazo[1,2-a]pyridin-7-yl]-methyl-amine] as the compound, how does the “% displacement … at 10 nM” value read?
Answer: Its value is 47%.

Question: With `CC(=O)O.CCOc1ccc(-c2cn3ccc(NC)cc3n2)cc1` [Example 93, N-[2-(4-Ethoxy-phenyl)-imidazo[1,2-a]pyridin-7-yl]-methyl-amine acetic acid adduct] as the compound, how does the “% displacement … at 10 nM” value read?
Answer: The value was 39%.

Question: How did the “% displacement … at 10 nM” value turn out when `FCCOc1cccc(-c2cn3ccc(N4CCC4)cc3n2)c1` [Example 140, 7-(azetidin-1-yl)-2-(3-(2-fluoroethoxy)phenyl)imidazo[1,2-a]pyridine] was run?
Answer: Its value is 23%.

Question: With `COc1ccc(-c2cn3ccc(NC(C)CO)cc3n2)cc1` (stereo not shown) [Example 134, 2-(2-(4-methoxyphenyl)imidazo[1,2-a]pyridin-7-ylamino)propan-1-ol] as the compound, how does the “% displacement … at 10 nM” value read?
Answer: The value was 21%.

Question: `CN(C)c1ccn2cc(-c3ccccc3)nc2c1` [Example 3, N,N-Dimethyl-2-phenylimidazo[1,2-a]pyridin-7-amine] was tested. Which “% displacement … at 10 nM” value did it give?
Answer: Its value is 59%.

Question: With `CNc1ccn2cc(-c3ccc(C)c(OC)c3)nc2c1` [Example 108, 2-(3-methoxy-4-methylphenyl)-N-methylimidazo[1,2-a]pyridin-7-amine] as the compound, how does the “% displacement … at 10 nM” value read?
Answer: The value was 26%.

Question: For `CNc1ccn2cc(-c3cccc(COC)c3)nc2c1` [Example 130, 2-[3-(Methoxymethyl)phenyl]-N-methyl-imidazo[1,2-a]pyridine-7-amine HCl adduct], which “% displacement … at 10 nM” value is on record?
Answer: Its value is 40%.

Question: For `CNc1ccn2cc(-c3ccc(OCCF)cc3)nc2c1` [Example 109, 2-[4-(2-Fluoroethoxy)phenyl]-N-methylimidazo[1,2-a]pyridin-7-amine], which “% displacement … at 10 nM” value is on record?
Answer: The value was 40%.

Question: `F[C@@H]1CCN(c2ccn3cc(-c4ccccc4)nc3c2)C1` [Example 42, 7-((R)-3-Fluoro-pyrrolidin-1-yl)-2-phenyl-imidazo[1,2-a]pyridine] was tested. Which “% displacement … at 10 nM” value did it give?
Answer: The value was 23%.

Question: How did the “% displacement … at 10 nM” value turn out when `FCCCOc1ccc(-c2cn3ccc(NC4CC4)cc3n2)cc1` [Example 148, N-Cyclopropyl-2-[4-(3-fluoropropoxy)phenyl]imidazo[1,2-a]pyridin-7-amine] was run?
Answer: The value was 20%.

Question: With `CNc1ccn2cc(-c3ccc(NCCF)cc3)nc2c1` [Example 131, 2-(4-(2-fluoroethylamino)phenyl)-N-methylimidazo[1,2-a]pyridin-7-amine] as the compound, how does the “% displacement … at 10 nM” value read?
Answer: Its value is 43%.

Question: Which “% displacement … at 10 nM” value does the source give for `COc1cccc(-c2cn3ccc(N(C)C)cc3n2)c1` [Example 32, [2-(3-Methoxy-phenyl)-imidazo[1,2-a]pyridin-7-yl]-dimethyl-amine] here?
Answer: The value was 36%.

Question: With `Oc1ccc(-c2cn3ccc(N4CCC4)cc3n2)cc1` [Example 40, 4-(7-Azetidin-1-yl-imidazo[1,2-a]pyridin-2-yl)-phenol] as the compound, how does the “% displacement … at 10 nM” value read?
Answer: The value was 37%.

Question: With `COc1ccc(-c2cn3ccc(N(C)CCF)cc3n2)cc1` [Example 65, (2-Fluoro-ethyl)-[2-(4-methoxy-phenyl)-imidazo[1,2-a]pyridin-7-yl]-methyl-amine] as the compound, how does the “% displacement … at 10 nM” value read?
Answer: The value was 28%.

Question: For `CN(C)c1ccn2cc(-c3ccc(CO)cc3)nc2c1` [Example 90, [4-[7-(Dimethylamino)imidazo[1,2-a]pyridin-2-yl]phenyl]methanol acetic acid adduct], which “% displacement … at 10 nM” value is on record?
Answer: Its value is 32%.

Question: With `CNc1ccn2cc(-c3ccc(OC)cc3)nc2c1` [Example 74, [2-(4-Methoxy-phenyl)-imidazo[1,2-a]pyridin-7-yl]-methyl-amine] as the compound, how does the “% displacement … at 10 nM” value read?
Answer: Its value is 44%.

Question: Which “% displacement … at 10 nM” value does the source give for `FCOc1cccc(-c2cn3ccc(N4CCC4)cc3n2)c1` [Example 107, 7-(Azetidin-1-yl)-2-[3-(fluoromethoxy)phenyl]imidazo[1,2-a]pyridine] here?
Answer: The value was 48%.

Question: `CC(=O)O.COc1cccc(-c2cn3ccc(N(C)CCF)cc3n2)c1` [Example 83, N-(2-fluoroethyl)-2-(3-methoxyphenyl)-N-methylimidazo[1,2-a]pyridin-7-amine, acetic acid adduct] was tested. Which “% displacement … at 10 nM” value did it give?
Answer: The value was 32%.

Question: `CO[C@@H]1CCN(c2ccn3cc(-c4ccc(C)cc4)nc3c2)C1` [Example 56, 7-((R)-3-Methoxy-pyrrolidin-1-yl)-2-p-tolyl-imidazo[1,2-a]pyridine] was tested. Which “% displacement … at 10 nM” value did it give?
Answer: The value was 28%.

Question: With `CNc1ccn2cc(-c3nccs3)nc2c1` [Example 104, Methyl-(2-thiazol-2-yl-imidazo[1,2-a]pyridin-7-yl)-amine] as the compound, how does the “% displacement … at 10 nM” value read?
Answer: The value was 10%.

Same assay, conditions: compound 1 uM, radioligand [3H]T808 10 nM

Question: For `CN(C)c1ccn2cc(-c3ccccc3)nc2c1` [Example 3, N,N-Dimethyl-2-phenylimidazo[1,2-a]pyridin-7-amine], which “% displacement of [3H]T808 (10 nM) at 1 uM” value is on record?
Answer: The value was 92%.
